# Measurements taken from patent US7521478B2, “Total synthesis of myriaporones” (Pharma Mar, S.A.U., priority 2002, dated 2009).
# Where two headings read alike, the source gives them in different places.
# Legend:
# Format in all cases: cell-based
# [1] = test system: DU-145; assay: Inhibition of cell growth by colorimetric SRB assay, DU-145; settings: Homo sapiens, DU-145, 48 hours exposure; for CC50: cell killing, read-out: LC50 (the source's name); for IC (total growth inhibition): read-out: TGI
# Source text: (§1) The finality of these assays is to interrupt the growth of a “in vitro” tumor cell culture by means a continued exhibition of the cells to the sample to be testing.
# (§2) Inhibition of Cell Growth by Colorimetric Assay.
# (§3) A colorimetric type of assay, using sulforhodamine B (SRB) reaction has been adapted for a quantitative measurement of cell growth and viability (following the technique described by P. A. Skehan, et al., J. Natl. CancerInst. 1990, 82, 1107-1112).
# (§4) This form of assay employs 96 well cell culture microplates of 9 mm diameter (T. Mosmann et al., J. of Immuological Methods 1983, 65, 55-63; G. T. Faircloth et al., J. of Tissue and Culture Methods 1988, 11, 201-205). Most of the cell lines are obtained from American Type Culture Collection (ATCC) derived from different human cancer types.
# (§5) Cells are maintained in RPMI 1640 10% FBS, supplemented with 0.1 g/L penicillin and 0.1 g/L streptomycin sulfate and then incubated at 37° C., 5% CO2 and 98% humidity. For the experiments, cells were harvested from subconfluent cultures using trypsin and resuspended in fresh medium before plating.
# (§6) Cells are seeded in 96 well microtiter plates, at 5×10^3 cells per well in aliquots of 195 μL medium, and they are allowed to attach to the plate surface by growing in drug free medium for 18 hours. Afterward, samples are added in aliquots of 5 μL in a ranging from 10 to 10^−8 μg/mL, dissolved in DMSO/EtOH/PBS (0.5:0.5:99). After 48 hours exposure, the antitumor effect are measured by the SRB methodology: cells are fixed by adding 50 μL of cold 50% (wt/vol) trichloroacetic acid (TCA) and incubated for 60 minutes at 4° C. Plates are washed with deionizer water and dried. One hundred μl of SRB solution (0.4% wt/vol in 1% acetic acid) is added to each microliter well and incubated for 10 minutes at room temperature. Unbound SRB is removed by washing with 1% acetic acid. Plates are air dried and bound stain is solubilized with Tris buffer. Optical densities are read on a automated spectrophotometric plate reader at a single wavelength of 490 nm.
# (§7) The values for mean +/−SD of data from triplicate wells are calculated. Some parameters for cellular responses can be calculated: GI=growth inhibition, TGI=total growth inhibition (cytostatic effect) and LC=cell killing (cytotoxic effect).
# [2] = test system: LNCaP; assay: Inhibition of cell growth by colorimetric SRB assay, LN-caP; settings: Homo sapiens, LN-caP, 48 hours exposure; for CC50: cell killing, read-out: LC50 (the source's name); for IC (total growth inhibition): read-out: TGI
# Source text: as §1, §2, §3, §4, §5, §6, §7
# [3] = test system: IGROV; assay: Inhibition of cell growth by colorimetric SRB assay, IGROV; settings: Homo sapiens, 48 hours exposure; for CC50: cell killing, read-out: LC50 (the source's name); for IC (total growth inhibition): read-out: TGI
# Source text: as §1, §2, §3, §4, §5, §6, §7
# [4] = test system: IGROV-ET; assay: Inhibition of cell growth by colorimetric SRB assay, IGROV-ET; settings: Homo sapiens, IGROV-ET, 48 hours exposure; for CC50: cell killing, read-out: LC50 (the source's name); for IC (total growth inhibition): read-out: TGI
# Source text: as §1, §2, §3, §4, §5, §6, §7
# [5] = test system: SK-BR-3; assay: Inhibition of cell growth by colorimetric SRB assay, SK-BR-3; settings: SK-BR-3, 48 hours exposure; for GI50 / CC50: Homo sapiens; for CC50: cell killing, read-out: LC50 (the source's name); for TGI: total growth inhibition
# Source text: as §1, §2, §3, §4, §5, §6, §7
# [6] = test system: SK-MEL-28; assay: Inhibition of cell growth by colorimetric SRB assay, MEL-28; settings: Homo sapiens, SK-MEL-28, MEL-28, 48 hours exposure; for CC50: cell killing, read-out: LC50 (the source's name); for IC (total growth inhibition): read-out: TGI
# Source text: as §1, §2, §3, §4, §5, §6, §7
# [7] = test system: A-549; assay: Inhibition of cell growth by colorimetric SRB assay, A-549; settings: Homo sapiens, A549, A-549, 48 hours exposure; for CC50: cell killing, read-out: LC50 (the source's name); for IC (total growth inhibition): read-out: TGI
# Source text: as §1, §2, §3, §4, §5, §6, §7
# [8] = test system: K-562; assay: Inhibition of cell growth by colorimetric SRB assay, K-562; settings: Homo sapiens, K562, K-562, 48 hours exposure; for CC50: cell killing, read-out: LC50 (the source's name); for IC (total growth inhibition): read-out: TGI
# Source text: as §1, §2, §3, §4, §5, §6, §7
# [9] = test system: PANC-1; assay: Inhibition of cell growth by colorimetric SRB assay, PANC-1; settings: Homo sapiens, PANC-1, 48 hours exposure; for CC50: cell killing, read-out: LC50 (the source's name); for IC (total growth inhibition): read-out: TGI
# Source text: as §1, §2, §3, §4, §5, §6, §7
# [10] = test system: HT-29; assay: Inhibition of cell growth by colorimetric SRB assay, HT-29; settings: Homo sapiens, HT-29, 48 hours exposure; for CC50: cell killing, read-out: LC50 (the source's name); for IC (total growth inhibition): read-out: TGI
# Source text: as §1, §2, §3, §4, §5, §6, §7
# [11] = test system: LoVo; assay: Inhibition of cell growth by colorimetric SRB assay, LOVO; settings: Homo sapiens, LOVO, 48 hours exposure; for LC50: cell killing, read-out: LC50; for IC (total growth inhibition): read-out: TGI
# Source text: as §1, §2, §3, §4, §5, §6, §7
# [12] = test system: LoVo-Dox; assay: Inhibition of cell growth by colorimetric SRB assay, LOVO-DOX; settings: Homo sapiens, LOVO-DOX, 48 hours exposure; for LC50 (concentration for 50% cell killing): read-out: LC50; for IC (total growth inhibition): read-out: TGI
# Source text: as §1, §2, §3, §4, §5, §6, §7
# [13] = test system: HeLa; assay: Inhibition of cell growth by colorimetric SRB assay, HELA; settings: Homo sapiens, HELA, 48 hours exposure; for CC50: cell killing, read-out: LC50 (the source's name); for IC (total growth inhibition): read-out: TGI
# Source text: as §1, §2, §3, §4, §5, §6, §7
# [14] = test system: HeLa-APL; assay: Inhibition of cell growth by colorimetric SRB assay, HELA-APL; settings: Homo sapiens; for CC50: cell killing, read-out: LC50 (the source's name); for IC (total growth inhibition): read-out: TGI
# Source text: as §1, §2, §3, §4, §5, §6, §7
# [15] = HELA-APL, 48 hours exposure, read-out: GI50
smiles,measurement,setting,value
C/C=C\[C@H](C)[C@H]1OC1(C)[C@@H](O)[C@@H](CO)C(=O)[C@H](CO)[C@H](O)CC(=O)CC (some centres unmarked) [3b + 4b],GI50,[1],6.52 µM
same,CC50,[1],26.8 µM
same,IC (total growth inhibition),[1],26.8 µM
same,GI50,[2],9.29 µM
same,CC50,[2],26.8 µM
same,IC (total growth inhibition),[2],26.8 µM
same,GI50,[3],5.96 µM
same,CC50,[3],26.8 µM
same,IC (total growth inhibition),[3],26.8 µM
same,GI50,[4],6.55 µM
same,CC50,[4],26.8 µM
same,IC (total growth inhibition),[4],26.8 µM
same,GI50,[5],5.07 µM
same,CC50,[5],23.3 µM
same,TGI,[5],1.09E−05 Molar
same,GI50,[6],5.53 µM
same,CC50,[6],26.8 µM
same,IC (total growth inhibition),[6],26.8 µM
same,GI50,[7],26.8 µM
same,CC50,[7],26.8 µM
same,IC (total growth inhibition),[7],26.8 µM
same,GI50,[8],14.2 µM
same,CC50,[8],23.3 µM
same,IC (total growth inhibition),[8],18.2 µM
same,GI50,[9],26.8 µM
same,CC50,[9],26.8 µM
same,IC (total growth inhibition),[9],26.8 µM
same,GI50,[10],22.1 µM
same,CC50,[10],26.8 µM
same,IC (total growth inhibition),[10],26.8 µM
same,GI50,[11],4.81 µM
same,LC50,[11],26.8 µM
same,IC (total growth inhibition),[11],12.6 µM
same,GI50,[12],9.34 µM
same,LC50 (concentration for 50% cell killing),[12],26.8 µM
same,IC (total growth inhibition),[12],26.8 µM
same,GI50,[13],8.73 µM
same,CC50,[13],26.8 µM
same,IC (total growth inhibition),[13],26.8 µM
same,CC50,"[14]; HELA-APL, 48 hours exposure",26.8 µM
same,GI50,[14]; [15],5.18 µM
same,IC (total growth inhibition),"[14]; HELA-APL, 48 hours exposure",26.8 µM
C/C=C\[C@H](C)[C@H]1O[C@@]1(C)[C@@H](O)[C@@H](CO)C(=O)[C@@H](CO)[C@@H](O)CC(=O)CC [3c + 4c],GI50,[1],0.55 µM
same,CC50,[1],26.8 µM
same,IC (total growth inhibition),[1],4.16 µM
same,GI50,[2],0.703 µM
same,CC50,[2],26.8 µM
same,IC (total growth inhibition),[2],4.56 µM
same,GI50,[3],0.553 µM
same,CC50,[3],20.9 µM
same,IC (total growth inhibition),[3],3.57 µM
same,GI50,[4],0.703 µM
same,CC50,[4],26.8 µM
same,IC (total growth inhibition),[4],6.95 µM
same,GI50,[5],1.16 µM
same,CC50,[5],26.8 µM
same,TGI,[5],6.07E−06 Molar
same,GI50,[6],0.634 µM
same,CC50,[6],26.8 µM
same,IC (total growth inhibition),[6],7.25 µM
same,GI50,[7],0.913 µM
same,CC50,[7],26.8 µM
same,IC (total growth inhibition),[7],13.4 µM
same,GI50,[8],4.59 µM
same,CC50,[8],26.8 µM
same,IC (total growth inhibition),[8],11.9 µM
same,GI50,[9],1.03 µM
same,CC50,[9],26.8 µM
same,IC (total growth inhibition),[9],13.3 µM
same,GI50,[10],0.564 µM
same,CC50,[10],26.8 µM
same,IC (total growth inhibition),[10],6.69 µM
same,GI50,[11],0.714 µM
same,LC50,[11],26.8 µM
same,IC (total growth inhibition),[11],7.01 µM
same,GI50,[12],0.846 µM
same,LC50 (concentration for 50% cell killing),[12],26.8 µM
same,IC (total growth inhibition),[12],6.18 µM
same,GI50,[13],0.62 µM
same,CC50,[13],26.8 µM
same,IC (total growth inhibition),[13],4.78 µM
same,CC50,"[14]; HELA-APL, 48 hours exposure",26.8 µM
same,GI50,[14]; [15],0.593 µM
same,IC (total growth inhibition),"[14]; HELA-APL, 48 hours exposure",8.67 µM
C/C=C\[C@H](C)[C@H]1OC1(C)[C@@H](O[Si](C)(C)C(C)(C)C)[C@@H](CO)C(=O)[C@H](CO)[C@@H](O)CC(=O)CC (some centres unmarked) [20a + 20c],GI50,[1],10.7 µM
same,CC50,[1],≥ 20.5 µM
same,IC (total growth inhibition),[1],20.5 µM
same,GI50,[2],8.42 µM
same,CC50,[2],≥ 20.5 µM
same,IC (total growth inhibition),[2],20.5 µM
same,GI50,[3],14.1 µM
same,CC50,[3],≥ 20.5 µM
same,IC (total growth inhibition),[3],20.5 µM
same,GI50,[4],13.8 µM
same,CC50,[4],≥ 20.5 µM
same,IC (total growth inhibition),[4],20.5 µM
same,GI50,[5],11.1 µM
same,CC50,[5],≥ 20.5 µM
same,TGI,[5],2.05E−05 Molar
same,GI50,[6],16.3 µM
same,CC50,[6],≥ 20.5 µM
same,IC (total growth inhibition),[6],20.5 µM
same,GI50,[7],≥ 20.5 µM
same,CC50,[7],≥ 20.5 µM
same,IC (total growth inhibition),[7],20.5 µM
same,GI50,[8],7.75 µM
same,CC50,[8],≥ 20.5 µM
same,IC (total growth inhibition),[8],20.5 µM
same,GI50,[9],14 µM
same,CC50,[9],≥ 20.5 µM
same,IC (total growth inhibition),[9],20.5 µM
same,GI50,[10],17.1 µM
same,CC50,[10],≥ 20.5 µM
same,IC (total growth inhibition),[10],20.5 µM
same,GI50,[11],10.4 µM
same,LC50,[11],≥ 20.5 µM
same,IC (total growth inhibition),[11],20.5 µM
same,GI50,[12],85.1 µM
same,LC50 (concentration for 50% cell killing),[12],≥ 20.5 µM
same,IC (total growth inhibition),[12],20.5 µM
same,GI50,[13],13.3 µM
same,CC50,[13],≥ 20.5 µM
same,IC (total growth inhibition),[13],20.5 µM
same,GI50,[14]; 48 h,12.9 µM
same,CC50,"[14]; HELA-APL, 48 hours exposure",≥ 20.5 µM
